Values of other authors in patent US20040192598A1, “Composition and method of alleviating adverse side effects and/or enhancing efficacy of agents that inhibit aromatase” (priority 2000, published 2004).
Read-outs that look alike come from different tables or passages of the source.

Experiments:
aromatase = target: T1, aromatase (Homo sapiens, UniProt P11511); conditions: treatment for breast cancer
T1 construct: host or cells: patients (in vivo, endogenous enzyme)
T1 sequence (P11511 1-503): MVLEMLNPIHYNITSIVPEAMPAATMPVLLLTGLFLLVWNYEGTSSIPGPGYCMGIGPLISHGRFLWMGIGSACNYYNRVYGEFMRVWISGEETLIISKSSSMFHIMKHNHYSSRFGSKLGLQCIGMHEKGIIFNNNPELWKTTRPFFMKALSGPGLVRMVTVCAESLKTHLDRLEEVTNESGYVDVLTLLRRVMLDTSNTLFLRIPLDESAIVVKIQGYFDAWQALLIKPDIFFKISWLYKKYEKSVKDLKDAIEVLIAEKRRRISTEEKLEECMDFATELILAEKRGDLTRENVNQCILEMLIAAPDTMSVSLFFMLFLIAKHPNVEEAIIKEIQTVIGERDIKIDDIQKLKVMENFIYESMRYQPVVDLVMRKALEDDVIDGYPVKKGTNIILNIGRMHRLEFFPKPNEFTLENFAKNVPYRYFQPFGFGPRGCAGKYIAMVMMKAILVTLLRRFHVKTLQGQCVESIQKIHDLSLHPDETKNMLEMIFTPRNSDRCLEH

Row | Structure (SMILES) | serum estrogen levels (aromatase) | other results
1 | CC(C)(C#N)c1cc(Cn2cncn2)cc(C(C)(C)C#N)c1 [anastrozole] | suppress serum estrogen levels to the limit of assay detection | –
2 | Clc1ccccc1C(c1ccccc1)(c1ccccc1)n1ccnc1 [clotrimazole] | – | relative risk for spontaneous abortion (in vivo): increased relative risk was also noted
3 | C[C@@H]1[C@H](O)[C@@H](C)/C=C/C=C/CC/C=C/C=C/C=C/C=C/C(O[C@H]2O[C@H](C)[C@@H](O)[C@H](N)[C@@H]2O)CC2O[C@](O)(CC(O)C(O)CCC(O)CC(O)CC(O)CC(=O)O[C@H]1C)CC(O)C2C(=O)O (stereo partly shown) [nystatin] | – | relative risk for spontaneous abortion (first-trimester exposure, independent of drug therapy indication): not
4 | N#Cc1ccc(C(c2ccc(C#N)cc2)n2cncn2)cc1 [Letrozole] | suppress serum estrogen levels to the limit of assay detection | –
